The record followed here is ChEMBL document CHEMBL1123820 (J Med Chem, 1987).

Assay [1] is filed under the species Cavia porcellus. The experiment in a line: Relative activity was measured in vitro with respect to substance P (SP) in guinea pig ileum. The format is functional.
For assay [2], the species on record is Rattus norvegicus. The experiment in a line: Relative activity was measured in vitro with respect to substance P (SP) in rat colon muscularis mucosae. The format is functional, Muscularis mucosa.
The species named for assay [3] is Rattus norvegicus. The experiment in a line: Relative activity was measured in vitro with respect to substance P (SP) in rat colon muscularis mucosae at a concentration of 10 uM; Inactive. The format is functional. Particulars: Muscularis mucosa.
For assay [4], the species on record is Cavia porcellus. The assay is described as follows: Relative activity was measured in vitro with respect to substance P (SP) in guinea pig ileum at a concentration of 10 uM; Inactive. It counts as functional.

Activity calls are given as the source filed them. The calls are words filed in the database; no cut-off is given here. Where a SMILES comes first, the peptide text is derived from it. [ ]: non-standard residue; d: D form. The star is where a group is joined. Orn = NCCC[C@H](N)C(=O)O; OBn = c1ccc(CO*)cc1

As to `CC(C)C[C@H](NC(=O)CNC(=O)[C@H](Cc1ccccc1)NC(=O)[C@H](Cc1ccccc1)NC(=O)[C@@H](N)CCCN)C(=O)N[C@@H](CCC(=O)OCc1ccccc1)C(N)=O` (H-[Orn]FFGLE(OBn)-NH2), the Relative activity in the assay listed under Cavia porcellus [1] amounted to 0.14; in the assay listed under Rattus norvegicus [2], 0.61.
The matching figures for `CC(C)C[C@H](NC(=O)CNC(=O)[C@H](Cc1ccccc1)NC(=O)[C@H](Cc1ccccc1)NC(=O)[C@@H](N)CCCN)C(=O)N[C@@H](CCC(=O)O)C(N)=O` (H-[Orn]FFGLE-NH2): 0.00058 and below 0.01.
Regarding `CC(C)C[C@H](NC(=O)CNC(=O)[C@H](Cc1ccccc1)NC(=O)[C@H](Cc1ccccc1)NC(=O)[C@@H](N)CCCN)C(=O)N[C@@H](CCCCN)C(N)=O` (H-[Orn]FFGLK-NH2), the Relative activity entry in the assay filed under Rattus norvegicus [3] and in the assay filed under Cavia porcellus [4] was “inactive” each time.
Consider `CSCC[C@H](NC(=O)[C@H](CC(C)C)NC(=O)CNC(=O)[C@H](Cc1ccccc1)NC(=O)[C@H](Cc1ccccc1)NC(=O)[C@@H](N)CCCN)C(N)=O` (H-[Orn]FFGLM-NH2), for which the Relative activity was determined as 0.39 in the assay filed under Cavia porcellus [1] and 0.36 in the assay listed under Rattus norvegicus [2].
The matching figures for `CC(C)C[C@H](NC(=O)CNC(=O)[C@H](Cc1ccccc1)NC(=O)[C@H](Cc1ccccc1)NC(=O)[C@@H](N)CCCN)C(=O)N[C@@H](CCC(N)=O)C(N)=O` (H-[Orn]FFGLQ-NH2): 0.0022 and below 0.01.
The matching figures for H-QFFGLM-NH2: 0.3 and 0.076.
